Measured values published in the NIST ThermoML archive (doi:10.1016/j.jct.2012.08.003).
± gives the expanded uncertainty stated by the source.

Legend:
[1] = molar heat capacity at constant pressure; conditions: 101.33 kPa
[2] = Molar enthalpy of transition or fusion; conditions: Crystal
[3] = for molar entropy: 101.33 kPa

[Cs+].[F-] [cesium fluoride (CsF)]
Conditions | molar entropy, [3] [J/K/mol] | molar heat capacity at constant pressure, [1] [J/K/mol]
5 K, Crystal, Vacuum adiabatic calorimetry | 0.08 ± 0.02 | 0.16 ± 0.01
10 K, Crystal, Vacuum adiabatic calorimetry | 0.49 ± 0.02 | 1.3 ± 0.05
15 K, Crystal, Vacuum adiabatic calorimetry | 1.54 ± 0.03 | 4.39 ± 0.18
20 K, Crystal, Vacuum adiabatic calorimetry | 3.34 ± 0.04 | 8.57 ± 0.35
25 K, Crystal, Vacuum adiabatic calorimetry | 5.65 ± 0.05 | 12.33 ± 0.5
30 K, Crystal, Vacuum adiabatic calorimetry | 8.2 ± 0.09 | 15.77 ± 0.63
35 K, Crystal, Vacuum adiabatic calorimetry | 10.86 ± 0.09 | 18.9 ± 0.76
40 K, Crystal, Vacuum adiabatic calorimetry | 13.57 ± 0.1 | 21.75 ± 0.87
45 K, Crystal, Vacuum adiabatic calorimetry | 16.28 ± 0.11 | 24.36 ± 0.98
50 K, Crystal, Vacuum adiabatic calorimetry | 18.97 ± 0.12 | 26.72 ± 1.1
60 K, Crystal, Vacuum adiabatic calorimetry | 24.21 ± 0.13 | 30.78 ± 1.2
70 K, Crystal, Vacuum adiabatic calorimetry | 29.21 ± 0.15 | 34.08 ± 1.4
80 K, Crystal, Vacuum adiabatic calorimetry | 33.94 ± 0.16 | 36.74 ± 0.74
90 K, Crystal, Vacuum adiabatic calorimetry | 38.4 ± 0.36 | 38.87 ± 0.8
100 K, Crystal, Vacuum adiabatic calorimetry | 42.59 ± 0.36 | 40.59 ± 0.83
110 K, Crystal, Vacuum adiabatic calorimetry | 46.53 ± 0.37 | 42.2 ± 0.86
120 K, Crystal, Vacuum adiabatic calorimetry | 50.27 ± 0.38 | 43.53 ± 0.89
130 K, Crystal, Vacuum adiabatic calorimetry | 53.8 ± 0.38 | 44.7 ± 0.91
140 K, Crystal, Vacuum adiabatic calorimetry | 57.15 ± 0.39 | 45.59 ± 0.93
150 K, Crystal, Vacuum adiabatic calorimetry | 60.32 ± 0.39 | 46.3 ± 0.94
160 K, Crystal, Vacuum adiabatic calorimetry | 63.33 ± 0.4 | 46.86 ± 0.95
170 K, Crystal, Vacuum adiabatic calorimetry | 66.18 ± 0.4 | 47.31 ± 0.96
180 K, Crystal, Vacuum adiabatic calorimetry | 68.9 ± 0.4 | 47.69 ± 0.97
190 K, Crystal, Vacuum adiabatic calorimetry | 71.49 ± 0.41 | 48 ± 0.98
200 K, Crystal, Vacuum adiabatic calorimetry | 73.95 ± 0.41 | 48.28 ± 0.98
210 K, Crystal, Vacuum adiabatic calorimetry | 76.32 ± 0.41 | 48.51 ± 0.99
220 K, Crystal, Vacuum adiabatic calorimetry | 78.58 ± 0.42 | 48.73 ± 0.99
230 K, Crystal, Vacuum adiabatic calorimetry | 80.75 ± 0.42 | 48.93 ± 0.99
240 K, Crystal, Vacuum adiabatic calorimetry | 82.84 ± 0.42 | 49.12 ± 1
250 K, Crystal, Vacuum adiabatic calorimetry | 84.84 ± 0.43 | 49.3 ± 1
260 K, Crystal, Vacuum adiabatic calorimetry | 86.78 ± 0.43 | 49.48 ± 1
270 K, Crystal, Vacuum adiabatic calorimetry | 88.65 ± 0.43 | 49.66 ± 1
280 K, Crystal, Vacuum adiabatic calorimetry | 90.46 ± 0.44 | 49.84 ± 1
290 K, Crystal, Vacuum adiabatic calorimetry | 92.21 ± 0.44 | 50.03 ± 1
298.15 K, Crystal, Drop calorimetry | 93.6 ± 4.2 | 50.19 ± 1.5
298.15 K, Crystal, Vacuum adiabatic calorimetry | 93.6 ± 0.44 | 50.19 ± 1
300 K, Crystal, Drop calorimetry | 93.91 ± 4.2 | 50.23 ± 1.5
300 K, Crystal, Vacuum adiabatic calorimetry | 93.91 ± 0.44 | 50.22 ± 1
310 K, Crystal, Vacuum adiabatic calorimetry | 95.56 ± 0.44 | 50.42 ± 1
320 K, Crystal, Vacuum adiabatic calorimetry | 97.17 ± 0.45 | 50.63 ± 1
330 K, Crystal, Vacuum adiabatic calorimetry | 98.73 ± 0.45 | 50.86 ± 1
340 K, Crystal, Vacuum adiabatic calorimetry | 100.25 ± 0.45 | 51.09 ± 1
350 K, Crystal, Drop calorimetry | 101.76 ± 4.6 | 51.72 ± 1.6
350 K, Crystal, Vacuum adiabatic calorimetry | 101.74 ± 0.45 | 51.33 ± 1
400 K, Crystal, Drop calorimetry | 108.79 ± 4.9 | 53.82 ± 1.6
450 K, Crystal, Drop calorimetry | 115.27 ± 5.2 | 56.28 ± 1.7
500 K, Crystal, Drop calorimetry | 121.34 ± 5.5 | 58.95 ± 1.8
550 K, Crystal, Drop calorimetry | 127.09 ± 5.7 | 61.78 ± 1.9
600 K, Crystal, Drop calorimetry | 132.59 ± 6 | 64.69 ± 2
650 K, Crystal, Drop calorimetry | 137.88 ± 6.2 | 67.68 ± 2.1
700 K, Crystal, Drop calorimetry | 143.01 ± 6.4 | 70.72 ± 2.1
750 K, Crystal, Drop calorimetry | 148 ± 6.7 | 73.8 ± 2.2
800 K, Crystal, Drop calorimetry | 152.86 ± 6.9 | 76.9 ± 2.3
850 K, Crystal, Drop calorimetry | 157.61 ± 7.1 | 80.02 ± 2.4
900 K, Crystal, Drop calorimetry | 162.28 ± 7.3 | 83.17 ± 2.5
950 K, Crystal, Drop calorimetry | 166.86 ± 7.5 | 86.32 ± 2.6
973 K, Crystal, Drop calorimetry | 168.94 ± 7.6 | 87.78 ± 2.7
973 K, Liquid, Drop calorimetry | 191.65 ± 8.6 | 70.56 ± 2.1
1000 K, Liquid, Drop calorimetry | 193.58 ± 8.7 | 70.56 ± 2.1
1050 K, Liquid, Drop calorimetry | 197.03 ± 8.9 | 70.56 ± 2.1
1100 K, Liquid, Drop calorimetry | 200.31 ± 9 | 70.56 ± 2.1
1150 K, Liquid, Drop calorimetry | 203.44 ± 9.2 | 70.56 ± 2.1
1200 K, Liquid, Drop calorimetry | 206.45 ± 9.3 | 70.56 ± 2.1
1250 K, Liquid, Drop calorimetry | 209.33 ± 9.4 | 70.56 ± 2.1
1300 K, Liquid, Drop calorimetry | 212.1 ± 9.5 | 70.56 ± 2.1
1350 K, Liquid, Drop calorimetry | 214.76 ± 9.7 | 70.56 ± 2.1
1400 K, Liquid, Drop calorimetry | 217.32 ± 9.8 | 70.56 ± 2.1

[2]
Conditions | Molar enthalpy of transition or fusion [kcal/mol]
DSC | 5.28 ± 0.956
enthalpy increment functions | 5.11 ± 1.43

Conditions | Normal melting temperature [°C]
[3], Crystal, DTA | 699.6 ± 0.5
